Experimental data as given in PubChem BioAssay AID248 (DTP/NCI, 2004).
Several values for one entry are separate records, joined by “and”; a condition that tells them apart may be missing. Identical values can stand only once. Inconclusive results and toxic doses are left out. Rule as the data show it: active = T/C of 150% or more; inactive = T/C below 125%.

Test system: L1210 leukemia ip in BDF1 mice, survival T/C
Assay: NCI In Vivo Anticancer Drug Screen. Data for tumor model L1210 Leukemia (intraperitoneal) in B6D2F1 (BDF1) mice
Settings: endpoint: mean survival time, higher = longer survival
Procedure, shortened: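 Mice bearing the transplanted tumor received compound or vehicle. Survival of the treated group was divided by that of the vehicle-treated control group to give the ratio.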

[1] = dose: 25.0 mg/kg/injection, schedule: Q01DX009 (ip), vehicle: saline with Tween-80
[2] = dose: 100.0 mg/kg/injection, schedule: Q04DX003 (ip), vehicle: saline with Tween-80
[3] = dose: 100.0 mg/kg/injection, schedule: Q01DX001 (ip), vehicle: carboxymethylcellulose (CMC)
[4] = dose: 200.0 mg/kg/injection, schedule: Q01DX001 (ip), vehicle: carboxymethylcellulose (CMC)
[5] = dose: 100.0 mg/kg/injection, schedule: Q01DX001 (ip), vehicle: saline
[6] = dose: 100.0 mg/kg/injection, schedule: Q04DX003 (ip), vehicle: other
[7] = dose: 200.0 mg/kg/injection, schedule: Q04DX003 (ip), vehicle: other
[8] = dose: 100.0 mg/kg/injection, schedule: Q01DX001 (ip), vehicle: saline with Tween-80
[9] = dose: 100.0 mg/kg/injection, schedule: Q01DX009 (ip), vehicle: Klucel (hydroxypropylcellulose) (HPC)
[10] = dose: 200.0 mg/kg/injection, schedule: Q01DX009 (ip), vehicle: Klucel (hydroxypropylcellulose) (HPC)
[11] = dose: 400.0 mg/kg/injection, schedule: Q01DX009 (ip), vehicle: Klucel (hydroxypropylcellulose) (HPC)
[12] = dose: 100.0 mg/kg/injection, schedule: Q01DX001 (ip), vehicle: Klucel (hydroxypropylcellulose) (HPC)
[13] = dose: 200.0 mg/kg/injection, schedule: Q01DX001 (ip), vehicle: Klucel (hydroxypropylcellulose) (HPC)
[14] = dose: 400.0 mg/kg/injection, schedule: Q01DX001 (ip), vehicle: Klucel (hydroxypropylcellulose) (HPC)
[15] = dose: 100.0 mg/kg/injection, schedule: Q04DX003 (ip), vehicle: Klucel (hydroxypropylcellulose) (HPC)
[16] = dose: 200.0 mg/kg/injection, schedule: Q04DX003 (ip), vehicle: Klucel (hydroxypropylcellulose) (HPC)
[17] = dose: 400.0 mg/kg/injection, schedule: Q04DX003 (ip), vehicle: Klucel (hydroxypropylcellulose) (HPC)
[18] = dose: 200.0 mg/kg/injection, schedule: Q01DX001 (ip), vehicle: saline
[19] = dose: 100.0 mg/kg/injection, schedule: Q04DX003 (ip), vehicle: saline
[20] = dose: 200.0 mg/kg/injection, schedule: Q04DX003 (ip), vehicle: saline

Measured: T/C

CC1CC(C)(C)N=C(C2(c3ccccc3)CC2)O1 (stereo not drawn)
inactive: [1] 102 % of control | dose: 50.0 mg/kg/injection, schedule: Q01DX009 (ip), vehicle: saline with Tween-80 98 % of control | dose: 50.0 mg/kg/injection, schedule: Q04DX003 (ip), vehicle: saline with Tween-80 88 % of control | dose: 100.0 mg/kg/injection, schedule: Q01DX009 (ip), vehicle: saline with Tween-80 100 % of control | [2] 95 % of control | dose: 200.0 mg/kg/injection, schedule: Q01DX009 (ip), vehicle: saline with Tween-80 98 % of control

c1ccc(Cn2cnc3c2nnn2ncnc32)cc1
inactive: [3] 106 % of control | [4] 102 % of control | dose: 400.0 mg/kg/injection, schedule: Q01DX001 (ip), vehicle: carboxymethylcellulose (CMC) 114 % of control

CC(O)C(O)C(O)C(O)C(c1ccc(Cl)cc1)c1ccc(Cl)cc1 (stereo not drawn)
inactive: dose: 50.0 mg/kg/injection, schedule: Q01DX001 (ip), vehicle: saline 104 % of control | [5] 98 % of control

CCSC1C(OC(C)=O)OC(C(COC(C)=O)OC(C)=O)C1OC(C)=O (stereo not drawn)
inactive: [6] 96 % of control | [7] 96 % of control | dose: 400.0 mg/kg/injection, schedule: Q04DX003 (ip), vehicle: other 96 % of control

Cc1cccc(Nc2c3ccccc3nc3ccccc23)c1
inactive: dose: 25.0 mg/kg/injection, schedule: Q01DX001 (ip), vehicle: saline with Tween-80 97 % of control | dose: 50.0 mg/kg/injection, schedule: Q01DX001 (ip), vehicle: saline with Tween-80 100 % of control | [8] 104 % of control

O=C1c2nc3ccccc3nc2C(=O)N1OS(=O)(=O)c1ccccc1
inactive: [9] 92 % of control | [10] 105 % of control | [11] 100 % of control

CC1=Nc2ccccc2SC(C)(C)C1
inactive: dose: 50.0 mg/kg/injection, schedule: Q01DX001 (ip), vehicle: Klucel (hydroxypropylcellulose) (HPC) 98 % of control | [12] 91 % of control | [13] 109 % of control | [14] 98 % of control

CC[n+]1cccc(C#N)c1
inactive: dose: 75.0 mg/kg/injection, schedule: Q01DX001 (ip), vehicle: saline 98 % of control | dose: 75.0 mg/kg/injection, schedule: Q04DX003 (ip), vehicle: saline 93 % of control | dose: 150.0 mg/kg/injection, schedule: Q01DX001 (ip), vehicle: saline 103 % of control | dose: 150.0 mg/kg/injection, schedule: Q04DX003 (ip), vehicle: saline 98 % of control | dose: 300.0 mg/kg/injection, schedule: Q01DX001 (ip), vehicle: saline 101 % of control

NCCCNCCCN
inactive: dose: 25.0 mg/kg/injection, schedule: Q04DX002 (ip), vehicle: Klucel (hydroxypropylcellulose) (HPC) 103 % of control | dose: 50.0 mg/kg/injection, schedule: Q04DX002 (ip), vehicle: Klucel (hydroxypropylcellulose) (HPC) 97 % of control | dose: 100.0 mg/kg/injection, schedule: Q04DX002 (ip), vehicle: Klucel (hydroxypropylcellulose) (HPC) 103 % of control and 117 % of control

CCOC(=O)c1cc(-c2ccccc2)c(-c2ccccc2)c(-c2ccccc2)c1-c1ccccc1
inactive: dose: 50.0 mg/kg/injection, schedule: Q01DX001 (ip), vehicle: carboxymethylcellulose (CMC) 97 % of control | [3] 100 % of control | [4] 97 % of control

O=[N+]([O-])c1ccc(C2=NCCS2)cc1
inactive: dose: 87.0 mg/kg/injection, schedule: Q04DX003 (ip), vehicle: Klucel (hydroxypropylcellulose) (HPC) 102 % of control | dose: 175.0 mg/kg/injection, schedule: Q04DX003 (ip), vehicle: Klucel (hydroxypropylcellulose) (HPC) 102 % of control | dose: 350.0 mg/kg/injection, schedule: Q04DX003 (ip), vehicle: Klucel (hydroxypropylcellulose) (HPC) 102 % of control

O=Nc1c(O)[nH]c(=O)[nH]c1=O
inactive: [12] 95 % of control | [13] 106 % of control

C/C(=C\c1ccccc1)C(=O)c1ccc(-c2ccccc2)cc1
inactive: [9] 97 % of control | [15] 100 % of control | [10] 93 % of control | [16] 100 % of control | [11] 92 % of control | [17] 93 % of control

N#CC1(C(N)=O)OC12CCS(=O)(=O)c1ccccc12 (stereo not drawn)
inactive: [5] 87 % of control | [18] 94 % of control

c1ccc(CNCCNCCNCc2ccccc2)cc1
inactive: [2] 101 % of control | dose: 200.0 mg/kg/injection, schedule: Q04DX003 (ip), vehicle: saline with Tween-80 98 % of control | dose: 400.0 mg/kg/injection, schedule: Q04DX003 (ip), vehicle: saline with Tween-80 94 % of control

OC1CC2CC1C1C3C=CC(C3)C21 (stereo not drawn)
inactive: dose: 6.25 mg/kg/injection, schedule: Q01DX009 (ip), vehicle: saline with Tween-80 98 % of control | dose: 12.5 mg/kg/injection, schedule: Q01DX009 (ip), vehicle: saline with Tween-80 101 % of control | [1] 101 % of control

CS(=O)(=O)Nc1cc(C(O)C2CCCCN2)ccc1O (stereo not drawn)
inactive: dose: 25.0 mg/kg/injection, schedule: Q01DX009 (ip), vehicle: saline 103 % of control | dose: 50.0 mg/kg/injection, schedule: Q01DX009 (ip), vehicle: saline 97 % of control | dose: 100.0 mg/kg/injection, schedule: Q01DX009 (ip), vehicle: saline 95 % of control | [19] 104 % of control | [20] 104 % of control

Nc1cc2ccccc2c(Br)n1
inactive: [8] 110 % of control | dose: 100.0 mg/kg/injection, schedule: Q01DX009 (ip), vehicle: saline sonified 98 % of control | dose: 200.0 mg/kg/injection, schedule: Q01DX001 (ip), vehicle: saline with Tween-80 105 % of control | dose: 200.0 mg/kg/injection, schedule: Q01DX009 (ip), vehicle: saline sonified 93 % of control | dose: 400.0 mg/kg/injection, schedule: Q01DX001 (ip), vehicle: saline with Tween-80 100 % of control | dose: 400.0 mg/kg/injection, schedule: Q01DX009 (ip), vehicle: saline sonified 98 % of control

CCc1ccc(NC(=O)Nc2cccc3ccccc23)cc1
inactive: [9] 87 % of control | [15] 98 % of control | [10] 90 % of control | [16] 90 % of control | [11] 92 % of control | [17] 96 % of control

CC(N)CCC(O)C(=O)O (stereo not drawn)
inactive: dose: 100.0 mg/kg/injection, schedule: Q04DX002 (ip), vehicle: saline 95 % of control | dose: 200.0 mg/kg/injection, schedule: Q04DX002 (ip), vehicle: saline 100 % of control | dose: 400.0 mg/kg/injection, schedule: Q04DX002 (ip), vehicle: saline 107 % of control

Cc1cc(N)nc(=O)n1C1OC(CO)C(O)C1O (stereo not drawn)
inactive: [5] 96 % of control | [18] 102 % of control | dose: 400.0 mg/kg/injection, schedule: Q01DX001 (ip), vehicle: saline 101 % of control

CCN1CCCC(OC(=O)c2cccc3[nH]ccc23)C1 (stereo not drawn)
inactive: [12] 93 % of control | [15] 103 % of control | [13] 97 % of control | [16] 101 % of control | [14] 98 % of control | [17] 101 % of control

O=C1c2ccccc2CC1(Br)Br
inactive: [6] 96 % of control | [7] 93 % of control

O=C1OCCO1
inactive: dose: 100.0 mg/kg/injection, schedule: Q04DX003 (ip), vehicle: saline sonified 95 % of control | dose: 200.0 mg/kg/injection, schedule: Q04DX003 (ip), vehicle: saline sonified 101 % of control | dose: 400.0 mg/kg/injection, schedule: Q04DX003 (ip), vehicle: saline sonified 101 % of control

CNC(=O)N1CC(C)OC(C)C1 (stereo not drawn)
inactive: [19] 115 % of control | dose: 200.0 mg/kg/injection, schedule: Q01DX009 (ip), vehicle: saline 92 % of control | [20] 105 % of control | dose: 400.0 mg/kg/injection, schedule: Q01DX009 (ip), vehicle: saline 107 % of control | dose: 400.0 mg/kg/injection, schedule: Q04DX003 (ip), vehicle: saline 101 % of control
